# Measured values: patent publication US6113896A, “Pharmaceutical compositions containing ecotin and homologs thereof” (priority 1994, dated 2000)
# Experiments:
# Assay type in all cases: biochemical
# [1] = molecular target: human FXIIa; test: Equilibrium inhibition constant with Factor XIIa; details: apparent value, 0.5 mM S2302
# Description: (§1) Determination of Equilibrium Inhibition Constants Apparent Ki values (Ki *) for the inhibition of the enzymes tested by ecotin and mutants were measured as follows. All reactions were performed at 25° C. Stock solutions of trypsin were quantitated by active site burst titration with MUGB as previously described (Jameson, G. W. et al., Biochem. J. 131:107-117 [1973]) using a Fluoroskan II plate reader at excitation wavelength of 355 nm and emission wavelength of 460 nm. Data was collected on a Macintosh SE20 using either Delta Soft II Fl v3.31 software (BioMetallics). Active site titrated trypsin was then used to quantitate ecotin active sites using BAPA as the substrate; a stoichiometry of 1:1 was assumed (Chung, C. H. et al., supra). Factor Xa, Factor XIIa, plasma kallikrein, or HLE were then quantitated by active site titration using ecotin as a standard, again assuming 1:1 stoichiometry. In addition, the concentration of HLE was quantitated by methods previously described using a calibrated stock of α1 -proteinase inhibitor to titrate the HLE active sites (Beatty, K. et al., J. Biol. Chem. 255:3931-3934 [1980]); the same HLE active site concentration was determined using both ecotin and α1 -proteinase inhibitor. […]
# [2] = molecular target: human plasma kallikrein; test: Equilibrium inhibition constant with plasma kallikrein
# Description: as §1
# [3] = molecular target: HLE (human leukocyte elastase); test: Equilibrium inhibition constant with HLE; details: apparent value, 0.08 mM MeOSuc-Ala-Ala-Pro-Val-MCA
# Description: as §1
# [4] = system: normal human plasma; test: Prothrombin time (PT) clotting assay; details: initiation by TF
# Description: Coagulation assays and Prolongation of Clotting Times Clotting times were performed using the ACL 300 Research Coagulation Analyzer. For the prothrombin time (PT) assays, the incubation time was set at 120 sec and acquisition time at 120 to 600 sec depending on the expected outcome of the assay. Membranes from 293 cells expressing TF (Paborsky, L. R. et al., Biochemistry 28:8072-8077 [1989]) were premixed with CaCl2. The sample (plasma and inhibitor) and reagent (CaCl2 /TF) were automatically mixed together after a 2 min incubation at 37° C. The clotting time was determined by optical assessment. The total incubation time of inhibitor with plasma before addition of CaCl2 /TF was ~5 min. Final concentrations were 78 nM to 7.8 μM ecotin, 3.7 nM TF (0.9 μg/ml by protein content), 22.5 mM CaCl2, and 50% plasma in a total volume of 160 μl.
# [5] = system: normal human plasma; test: Activated partial thromboplastin time (APTT) clotting assay; details: ellagic acid
# Description: For the activated partial thromboplastin time (APTT) assays, the activation time was set at 120 sec and acquisition time at 300 to 600 sec depending on the expected outcome of the assay. Citrated normal human plasma and inhibitor were incubated together. The sample (plasma and inhibitor) and activator (Instrumentation Laboratories Ellagic acid/Phospholipid mix Test Reagent) were automatically pipetted and incubated together for 2 min at 37° C., then CaCl2 was added and clotting time determined by means of optical assessment. The total incubation time of inhibitor with plasma was ca. 3 min before addition of activator, and 5 min before addition of CaCl2. Final concentrations were 0.57 nM to 5.7 μM ecotin, 15.3 ug protein/ml 293 cell membranes, 8.3 uM ellagic acid, 8.3 mM CaCl2, and 33.3% plasma in a total volume of 162 μl.
substance,measurement,setting,value
"Ecotin: E. coli periplasmic protein having the 142 amino acid residue sequence reported by McGrath et al.; recombinant, P1 Met84",Ki,[1],0.124 ± 0.026 nM
same,Ki,[2]; plasma kallikrein=1.3 nM,0.175 ± 0.02 nM
same,Ki,[2]; plasma kallikrein=4.3 nM,0.151 ± 0.02 nM
same,Ki,[3],0.05 nM
same,"concentration causing 10-fold prolongation of clotting time, PT",[4],~2 μM
same,"concentration causing 10-fold prolongation of clotting time, PT",[4]; listed as Wild type ecotin,~ 2 μM
same,"concentration causing 10-fold prolongation of clotting time, APTT",[5],~0.3 μM
same,"concentration causing 10-fold prolongation of clotting time, APTT",[5]; listed as Wild type ecotin,~ 0.3 μM
